Reference: PMC10223284, “Category-Based Toxicokinetic Evaluations of Data-Poor Per- and Polyfluoroalkyl Substances (PFAS) using Gas Chromatography Coupled with Mass Spectrometry” (Toxics, 2023)
“And” between values parts separate entries of the source, which are not always exact repeats. Equal entries are not always repeated. Where two headings read alike, the source gives them in different places.

Assays:
[1] = Abiotic loss in negative controls of the hepatocyte clearance assay (cell-free media, metabolically inactivated hepatocytes); assay type: in vitro ADME; conditions: flag for stability failure in hepatocyte clearance assay controls (1 or Fst = fail, 0 = pass)
Experimental: (§1) The hepatic metabolic stability assay measures the loss of a parent compound over time in a substrate-depletion approach. Briefly, hepatocyte suspensions, after a viability assessment, were diluted in complete William’s medium E (containing dexamethasone and cell maintenance cocktail B) prior to addition to 96-well polypropylene plates containing an equal volume of media spiked with the test compound (1 μM assay concentration; assay cell density = 50,000 cells/100 μL) and maintained at 37 °C with shaking. At each time point, relevant plates were crashed with an equal volume of ice-cold acetonitrile, centrifuged, and supernatant transferred to a new plate prior to storage at <−70 °C until quantitative analysis. Controls, run in parallel, included cell-free (i.e., media only) and metabolically inactivated hepatocytes to evaluate abiotic chemical stability in the aqueous media matrix with and without cellular protein. In preliminary runs, these controls were run at T0 and T240 only. If significant instability was noted, the hepatocyte clearance assay was rerun, including cell-free samples at each time point and metabolically inactivated hepatocytes at selected time points.
Negative controls, including media only and metabolically inactivated hepatocyte controls, were included to monitor abiotic loss (i.e., background clearance) during the assay. Where significant compound loss occurred using the analysis described above, background clearance rates were calculated and used to background-adjust hepatic metabolic clearance rates. Where chemicals were cleared prior to the end of the analysis, at 240 min (T240), the corresponding negative control timepoint was used for background subtraction. Any chemicals displaying a 50% or more abiotic loss at T120 were deemed unstable and were excluded from further analyses.

human plasma [2] = conditions: human, plasma
in vitro = conditions: both, human, plasma
human plasma [3] = experiment: Chemical stability in plasma over the UC assay time course (T5hr/T1hr); conditions: for % remaining_PPB: chemical remaining in plasma over the PPB assay time course, NS = no significant loss; for PPB_Stab_Fail: flag for stability failure in the plasma protein binding assay (1 = fail, 0 = pass); for Fstable.Med: median fraction stable in plasma, UC assay Level4
human plasma [4] = experiment: Ultracentrifugation (UC) plasma protein binding assay, fraction unbound in plasma (fup); conditions: for Fup.Med: median fraction unbound in plasma; for Fup.Med / Fup.point: UC assay Level4; for Fup.point: point estimate of fraction unbound in plasma
[5] = Hepatic metabolic stability (hepatocyte clearance) assay, substrate depletion; assay type: in vitro ADME, human; conditions: both sexes, human, s9, Clint.1.Med
Excerpt: William’s Medium E (Gibco A1217601), dexamethasone, and cell maintenance cocktail B (Gibco CM4000) were obtained from Thermo Fisher Scientific (Waltham, MA, USA). Hepatosure OptiThaw media (P/N K8000; Lot No. 18–1–0322) was obtained from Sekisui Xenotech (Kansas City, KS, USA). Trypan blue solution (P/N 1450021) was obtained from Bio-Rad (Hercules, CA, USA). Pooled human cryopreserved primary hepatocyte suspensions were obtained from BioIVT (Westbury, NY, USA) and produced using nontransplantable tissue. The human 50-donor pool (mixed gender; Cat X0080005; Lot MYC), selected from BioIVT’s commercially available, prepooled lots, was selected following review of vendor-generated metabolic characterization information. Pooled, mixed-sex human plasma from de-identified donors was obtained from a commercial vendor that operates a U.S. Food and Drug Administration-licensed and inspected donor center (BioIVT bioivt.com (accessed 12 May 2023). Donors comprised five males and five females and ranged from 20 to 50 years of age. Plasma collected using anticoagulant K2EDTA was sterile-filtered ([…]) and stored at <−70 °C until use.
as §1
To process samples for quantitative analysis, samples were thawed and mixed. An aliquot of sample was removed and diluted in acetonitrile (1 part sample plus 9 parts acetonitrile) containing the relevant ISs selected for the PFAS being analyzed (See Table S2). The target at instrument concentration of each IS was 10 pg/μL.
The curves were generated using concentration/response ratios from the target analyte and IS, with either linear or quadratic regression models. The model and weighting, if necessary, were chosen to most accurately reflect the response of each compound and was evaluated by recalculating the individual calibration points using the curve. An acceptable model reflected an accuracy of ±30% of the theoretical value.
Hepatic metabolic clearance data were plotted in semi-log format (ln concentration vs. time) with three replicates at each time point, as previously described. […] The equations described below are used to calculate the chemical half-life (T½) and intrinsic in vitro clearance (Clin vitro) with units of μL/(min × million hepatocytes). In Equation (3), 2000 is a scalar used to adjust the assay cell number up to be consistent with units of 1 million cells in the Clint equation.
Negative controls, including media only and metabolically inactivated hepatocyte controls, were included to monitor abiotic loss (i.e., background clearance) during the assay. Where significant compound loss occurred using the analysis described above, background clearance rates were calculated and used to background-adjust hepatic metabolic clearance rates. […]

[6] = Mean fu, fraction unbound in human plasma, ultracentrifugation, some values based on eLOQ

C=CC(=O)OCCC(F)(F)C(F)(F)C(F)(F)C(F)(F)C(F)(F)C(F)(F)C(F)(F)C(F)(F)F [8:2 Fluorotelomer acrylate]
Hep_Stab_Fail [1]: 1
% remaining_PPB (human plasma [2]): 0%
PPB_Stab_Fail (human plasma [2]): 1

FC(F)(Br)C(F)(F)C(F)(F)C(F)(F)C(F)(F)C(F)(F)Br [1,6-Dibromododecafluorohexane]
Hep_Stab_Fail [1]: 1
fraction unbound (in vitro; Fraction Unbound (fu), Run-specific Avg, average of one UC run): 0.00422
fraction unbound (in vitro; Fraction Unbound (fu), individual replicates A, B, C of the UC run named in c8): 0.00424
fraction unbound (in vitro; Mean Fu, mean fraction unbound in human plasma over all UC replicates/runs): 0.00422
fraction unbound (in vitro; [6]): 0.004
Time 1 hr (human plasma [3]; amount measured in plasma sample at 1 hr, replicates A, B, C, unit not given): 8781.60 and 9238.06 and 11600.01
Time 1 hr, Run-specific Avg (human plasma [3]; amount measured in plasma sample at 1 hr, run average, unit not given): 9873.23
Time 5 hr (human plasma [3]; amount measured in plasma sample at 5 hr, replicates A, B, C, unit not given): 4002.39 and 3732.26 and 4390.36
Time 5 hr, Run-specific Avg (human plasma [3]; amount measured in plasma sample at 5 hr, run average, unit not given): 3867.32
Stability (T5hr/ T1hr), Run-specific Avg (human plasma [3]; average of one UC run): 0.392
% remaining_PPB (human plasma [3]): 40%
PPB_Stab_Fail (human plasma [3]): 0
Mean Stability (human plasma [3]; mean T5hr/T1hr ratio in plasma over all replicates/runs): 0.415
Fstable.Med (human plasma [3]): 0.312
Aqueous Fraction (human plasma [4]; amount measured in aqueous fraction after ultracentrifugation, replicates A, B, C, unit not given): 16.97
Aqueous Fraction, Run-specific Avg (human plasma [4]; amount measured in aqueous fraction after ultracentrifugation, run average, unit not given): 16.97
fup (human plasma [4]; human plasma, 10 μM, ultracentrifugation, 37 °C): 0.004
Fup.Med (human plasma [4]): 1.78E-09
Fup.point (human plasma [4]): 0

CCNc1nc(NC(C)C)nc(SC)n1 [Ametryn, reference compound]
hepatocyte CLint at 1 μM [5]: 14.7 µL/min/1e6 cells

O=C(CC(=O)C(F)(F)C(F)(F)C(F)(F)F)c1cccs1 [(Perfluorobutyryl)-2-thenoylmethane]
Hep_Stab_Fail [1]: Fst
fraction unbound (in vitro; Fraction Unbound (fu), Run-specific Avg, average of one UC run (run date in line above)): 0.00714
fraction unbound (in vitro; Fraction Unbound (fu), replicates A, B, C, single replicate of one UC run (aqueous fraction / Time 5 hr)): 0.00885
fraction unbound (in vitro; Mean Fu, mean fraction unbound over all replicates and runs, UC assay, human plasma): 0.007
fraction unbound (in vitro; [6]): 0.006
Stability (T5hr/ T1hr), Run-specific Avg (human plasma [3]; average of one UC run (run date in line above)): 1.277
% remaining_PPB (human plasma [3]): 100%
PPB_Stab_Fail (human plasma [3]): 0
Mean Stability (human plasma [3]; mean T5hr/T1hr ratio over all replicates and runs, plasma): 1.278
Fstable.Med (human plasma [3]): 0.959
Stability (T5hr/ T1hr), replicates A, B, C (human plasma [3]; single replicate of one UC run): 1.693 and 1.2724 and 0.868
Fup.Med (human plasma [4]): 0.00944
Fup.point (human plasma [4]): 0.00576
Fraction Unbound (fu), replicates A, B, C (human plasma [4]; single replicate of one UC run (aqueous fraction / Time 5 hr)): 0.006374 and 0.006195
